{"source": "patent EP1566447A1", "about": "“Glimepiride- and insulin-induced glycosylphosphatidylinositol-specific phospholipase C regulation” (priority 2004, dated 2005)", "key": {"Pancreatic lipase (PL)": {"target": "T1, Pancreatic lipase (PL) (Sus scrofa, UniProt P00591)", "T1 construct": "crude porcine pancreatic lipase (PL); purchased Sigma/Aldrich (Deisenhofen, Germany); host or cells: porcine pancreas (crude preparation)", "T1 sequence (P00591 1-450)": "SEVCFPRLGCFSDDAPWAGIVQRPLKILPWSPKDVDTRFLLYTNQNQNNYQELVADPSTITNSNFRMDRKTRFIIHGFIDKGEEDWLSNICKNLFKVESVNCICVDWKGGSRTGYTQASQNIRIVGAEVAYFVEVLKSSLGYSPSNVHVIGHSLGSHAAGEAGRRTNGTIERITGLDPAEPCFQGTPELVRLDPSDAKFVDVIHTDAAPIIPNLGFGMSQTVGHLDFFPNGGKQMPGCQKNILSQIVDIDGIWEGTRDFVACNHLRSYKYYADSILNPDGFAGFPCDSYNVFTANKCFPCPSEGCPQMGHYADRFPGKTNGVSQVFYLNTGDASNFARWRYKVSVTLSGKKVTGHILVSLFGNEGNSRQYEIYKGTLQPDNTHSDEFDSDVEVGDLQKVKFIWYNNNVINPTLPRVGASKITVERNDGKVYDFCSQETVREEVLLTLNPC", "T1 sequence (P02703 23-112 partner)": "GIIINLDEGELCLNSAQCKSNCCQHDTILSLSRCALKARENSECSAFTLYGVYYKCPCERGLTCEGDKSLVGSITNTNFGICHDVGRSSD", "test": "selectivity: pancreatic lipase assay", "format": "biochemical, porcine", "conditions": "50 µM", "method": "(§1) Hormone-sensitive lipase (HSL) and lipoprotein lipase (LPL) were measured using a radiolabeled triolein droplet emulsion as described in \"Vertesy et al., (2002) Journal Antibiotics 55:480-494\". Pancreatic lipase (PL) was determined by incubation of 0.25 mmol tributyrin in 2 ml of 5 mM Tris/HCl (pH 6.5), 6 mM sodium taurodeoxycholate, 150 mM NaCl, 1 mM CaCl2 with porcine PL and colipase in the same buffer using a recording pH stat (stirring at 1000 rpm at 25°C) with the pH adjusted to 6.5. PC-PLC was assayed by incubation of 0.2 ml of 10 mM dipalmitoyllecithin, 0.1 ml of 10 mM SDC and 0.1 ml of 0.03 M CaCl2 with bacterial PC-PLC (in 50 mM Tris/HCl, pH 7.5, 0.1 % BSA) for 10 min at 37°C. The reaction was terminated by addition of 0.1 ml of 50 % TCA and subsequently of 2.5 ml of […]. After centrifugation (1500xg, 15 min), 0.2-ml portions of the upper methanol/water phase (~ 1.33 ml) was removed, supplemented with 0.5 ml of 60 % HClO4, then heated at 170°C for 1 h and finally analyzed for inorganic phosphate. Mammalian PI-PLC was measured by incubation of 0.1 ml of 10 mM PI, 0.1 ml of 0.8 % sodium deoxycholate, 0.1 % BSA, 0.2 ml of 100 mM sodium borate (pH 7.5) and rat liver PI-PLC for 20 min at 37°C. The reaction was terminated and further processed as described for the PC-PLC. […] Radioactive phosphatidic acid was detected by phosphorimaging. […]"}, "Isolated rat adipocytes": {"tested_on": "Isolated rat adipocytes", "test": "glimepiride-induced redistribution of signaling proteins within DIGs", "format": "cell-based", "conditions": "max. effective conc. (50 µM)"}, "rat liver PI-PLC": {"tested_on": "rat liver PI-PLC", "test": "selectivity: mammalian PI-PLC assay", "format": "biochemical", "conditions": "50 µM", "method": "as §1"}}, "note": "Entries after “also recorded” stand apart in the source; their conditions may differ."}
{"smiles": "CCCCCCCCCCCCP1(=O)O[C@@H]2[C@H](O)[C@@H](O)[C@H](O)[C@@H](O)[C@@H]2O1", "note": "(mixture of isomers) [GPI-2350, myo-inositol-1,2-cyclo-dodecylphosphonic acid]", "values": [{"measurement": "effect on lipase activity", "setting": "Pancreatic lipase (PL)", "result": "not significantly affected"}, {"measurement": "effect on glimepiride-induced redistribution from hcDIGs to IcDIGs", "setting": "Isolated rat adipocytes", "result": "almost complete blockade; also recorded: almost completely abolished"}, {"measurement": "effect on phospholipase activity", "setting": "rat liver PI-PLC", "result": "not significantly affected"}]}
